Laboratory results reported in patent EP0183129A1, “Quinolonecarboxylic acid derivatives” (KYORIN PHARMACEUTICAL CO., LTD., priority 1984, dated 1986).
In brackets after ≈: the same amount, converted by molar mass. Structures can show the parent of a compound that is named as a salt. Where two headings read alike, the source gives them in different places.

Key:
S. faecalis 402 = assay: In vitro antibacterial activity, MIC (clinical isolates); type: cell-based; settings: Enterococcus faecalis; S. faecalis 402; 10^6 cells/ml; clinical isolate; read-out: MIC
S. agalactiae 4342 = assay: as above; type: cell-based; settings: Streptococcus agalactiae; S. agalactiae 4342; 10^6 cells/ml; clinical isolate; read-out: MIC
E. coli ATCC 10536 = assay: In vitro antibacterial activity, MIC (standard strain); type: cell-based; settings: Escherichia coli, ATCC10536
[1] = tested on: Salmonella entritidis IID 604; assay: as above; type: cell-based; settings: IID604; Salmonella entritidis IID 604; 10^6 cells/ml; standard strain; read-out: MIC
S. pyogenes 3130 = assay: In vitro antibacterial activity, MIC (clinical isolates); type: cell-based; settings: Streptococcus pyogenes, read-out: MIC
[2] = tested on: Klebsiella pneumoniae KY(GN)6445; assay: In vitro antibacterial activity, MIC (standard strain); type: cell-based; settings: Klebsiella pneumoniae KY(GN)6445; 10^6 cells/ml; standard strain; read-out: MIC
S. faecalis 49 = assay: In vitro antibacterial activity, MIC (clinical isolates); type: cell-based; settings: Enterococcus faecalis; S. faecalis 49; 10^6 cells/ml; clinical isolate; read-out: MIC
S. marcescens GN 7577 = assay: In vitro antibacterial activity, MIC (standard strain); type: cell-based; settings: Serratia marcescens, GN7577; S. marcescens GN 7577; 10^6 cells/ml; standard strain; read-out: MIC
S. pyogenes 3102 = assay: In vitro antibacterial activity, MIC (clinical isolates); type: cell-based; settings: Streptococcus pyogenes; S. pyogenes 3102; 10^6 cells/ml; clinical isolate; read-out: MIC
B. fragilis 25285 = assay: In vitro antibacterial activity, MIC (standard strain); type: cell-based, Bacteroides fragilis; settings: Bacteroides fragilis, 25285, B. fragilis 25285; 10^6 cells/ml; standard strain; read-out: MIC
S. pneumoniae 15 = assay: In vitro antibacterial activity, MIC (clinical isolates); type: cell-based; settings: Streptococcus pneumoniae; S. pneumoniae 15; 10^6 cells/ml; clinical isolate; read-out: MIC
E. coli ML 4707 = assay: In vitro antibacterial activity, MIC (standard strain); type: cell-based; settings: Escherichia coli, ML4707
[3] = tested on: Acinetobacter anitratus IID 876; assay: as above; type: cell-based; settings: Acinetobacter calcoaceticus, IID876, Acinetobacter anitratus IID 876; 10^6 cells/ml; standard strain; read-out: MIC
S. faecalis IID 682 = assay: as above; type: cell-based; settings: Enterococcus faecalis, IID682; S. faecalis IID 682; 10^6 cells/ml; standard strain; read-out: MIC
[4] = tested on: Streptococcus pyogenes S-8; assay: as above; type: cell-based; settings: S8; Streptococcus pyogenes S-8; 10^6 cells/ml; standard strain; read-out: MIC
[5] = tested on: Fusobacterium varium KYA 8501; assay: as above; type: cell-based; settings: Fusobacterium varium, KYA8501, Fusobacterium varium KYA 8501; 10^6 cells/ml; standard strain; read-out: MIC
S. agalactiae 4468 = assay: In vitro antibacterial activity, MIC (clinical isolates); type: cell-based; settings: Streptococcus agalactiae; S. agalactiae 4468; 10^6 cells/ml; clinical isolate; read-out: MIC
[6] = tested on: Bacillus subtilis PCI 219; assay: In vitro antibacterial activity, MIC (standard strain); type: cell-based; settings: PCI219
P. aeruginosa IID 1210 = assay: as above; type: cell-based; settings: Pseudomonas aeruginosa, IID1210; P. aeruginosa IID 1210; 10^6 cells/ml; standard strain; read-out: MIC
S. epidermidis IID 866 = assay: as above; type: cell-based; settings: Staphylococcus epidermidis
S. agalactiae 4470 = assay: In vitro antibacterial activity, MIC (clinical isolates); type: cell-based; settings: Streptococcus agalactiae; S. agalactiae 4470; 10^6 cells/ml; clinical isolate; read-out: MIC
[7] = tested on: Yersinia enterocolitica IID 981; assay: In vitro antibacterial activity, MIC (standard strain); type: cell-based; settings: IID981; Yersinia enterocolitica IID 981; 10^6 cells/ml; standard strain; read-out: MIC
S. agalactiae 4394 = assay: In vitro antibacterial activity, MIC (clinical isolates); type: cell-based; settings: Streptococcus agalactiae; S. agalactiae 4394; 10^6 cells/ml; clinical isolate; read-out: MIC
K. pneumoniae 1-220S = assay: In vitro antibacterial activity, MIC (standard strain); type: cell-based; settings: Klebsiella pneumoniae, 1220S; K. pneumoniae 1-220S; 10^6 cells/ml; standard strain; read-out: MIC
[8] = tested on: Clostridium perfringens KYA 13123; assay: microbe, parasite or virus in culture; type: cell-based; settings: KYA13123
S. pneumoniae IID 552 = assay: In vitro antibacterial activity, MIC (standard strain); type: cell-based; settings: Streptococcus pneumoniae, IID552; S. pneumoniae IID 552; 10^6 cells/ml; standard strain; read-out: MIC
S. pneumoniae 3227 = assay: In vitro antibacterial activity, MIC (clinical isolates); type: cell-based; settings: Streptococcus pneumoniae; S. pneumoniae 3227; 10^6 cells/ml; clinical isolate; read-out: MIC
S. aureus Smith = assay: In vitro antibacterial activity, MIC (standard strain); type: cell-based, Staphylococcus aureus; settings: Staphylococcus aureus, S. aureus Smith, 10^6 cells/ml, standard strain
[9] = tested on: Staphylococcus aureus 209 P; assay: as above; type: cell-based
S. pyogenes 4372 = assay: In vitro antibacterial activity, MIC (clinical isolates); type: cell-based; settings: Streptococcus pyogenes; S. pyogenes 4372; 10^6 cells/ml; clinical isolate; read-out: MIC
[10] = tested on: Enterobacter cloacae IID 977; assay: In vitro antibacterial activity, MIC (standard strain); type: cell-based; settings: Enterobacter cloacae, IID977, Enterobacter cloacae IID 977; 10^6 cells/ml; standard strain; read-out: MIC

Row | Structure (SMILES) | MIC (S. faecalis 402) [µg/mL] | MIC (S. agalactiae 4342) [µg/mL] | MIC [1] [µg/mL] | MIC (S. pyogenes 3130) [µg/mL] | MIC [2] [µg/mL] | MIC (S. faecalis 49) [µg/mL] | MIC (S. marcescens GN 7577) [µg/mL] | MIC (S. pyogenes 3102) [µg/mL] | MIC (B. fragilis 25285) [µg/mL] | MIC (S. pneumoniae 15) [µg/mL] | MIC [3] [µg/mL] | MIC (S. faecalis IID 682) [µg/mL] | MIC [4] [µg/mL] | MIC [5] [µg/mL] | MIC (S. agalactiae 4468) [µg/mL] | MIC (P. aeruginosa IID 1210) [µg/mL] | MIC (S. agalactiae 4470) [µg/mL] | MIC [7] [µg/mL] | MIC (S. agalactiae 4394) [µg/mL] | MIC (K. pneumoniae 1-220S) [µg/mL] | also measured
1 | CCNCC1CCN(c2c(F)cc3c(=O)c(C(=O)O)cn(C4CC4)c3c2Br)C1 (stereo not drawn) [Example 17, 8-Bromo-l-cyclopropyl-7-(3-ethylaminomethyl-l-pyrrolidinyl)-6-fluoro-1,4-dihydro-4-oxo-3-quinolinecarboxylic acid] | 0.1 (≈ 0.221 µM) | 0.05 (≈ 0.111 µM) | 0.1 (≈ 0.221 µM) | 0.05 (≈ 0.111 µM) | 0.05 (≈ 0.111 µM) | 0.1 (≈ 0.221 µM) | 0.78 (≈ 1.72 µM) | 0.05 (≈ 0.111 µM) | ≤ 0.05 | 0.05 (≈ 0.111 µM) | 0.05 (≈ 0.111 µM) | 0.05 (≈ 0.111 µM) | 0.05 (≈ 0.111 µM) | 0.39 (≈ 0.862 µM) | 0.05 (≈ 0.111 µM) | 1.56 (≈ 3.45 µM) | 0.05 (≈ 0.111 µM) | 0.1 (≈ 0.221 µM) | 0.1 (≈ 0.221 µM) | 0.1 (≈ 0.221 µM) | MIC (E. coli ATCC 10536; E. coli ATCC 10536, 10^6 cells/ml, standard strain, read-out: MIC): 0.025 µg/mL (≈ 0.0553 µM); MIC (E. coli ML 4707; E. coli ML 4707, 10^6 cells/ml, standard strain, read-out: MIC): 0.025 µg/mL (≈ 0.0553 µM); MIC ([6]; Bacillus subtilis PCI 219, 10^6 cells/ml, standard strain, read-out: MIC): 0.0125 µg/mL (≈ 0.0276 µM); MIC (S. epidermidis IID 866; IID866, S. epidermidis IID 866, 10^6 cells/ml, standard strain, read-out: MIC): 0.025 µg/mL (≈ 0.0553 µM); MIC [8]: 0.1 µg/mL (≈ 0.221 µM); MIC (S. pneumoniae IID 552): 0.05 µg/mL (≈ 0.111 µM); MIC (S. pneumoniae 3227): 0.05 µg/mL (≈ 0.111 µM); MIC (S. aureus Smith; read-out: MIC): 0.0125 µg/mL (≈ 0.0276 µM); MIC ([9]; Staphylococcus aureus 209 P, 10^6 cells/ml, standard strain, read-out: MIC): 0.0125 µg/mL (≈ 0.0276 µM); MIC (S. pyogenes 4372): 0.05 µg/mL (≈ 0.111 µM); MIC [10]: 0.1 µg/mL (≈ 0.221 µM)
2 | NCC1CCN(c2c(F)cc3c(=O)c(C(=O)O)cn(C4CC4)c3c2Cl)C1 (stereo not drawn) [Example 14, 8-Chloro-l-cyclopropyl-6-fluoro-l,4-dihydro-7-(3-aminomethyl-l-pyrrolidinyl)-4-oxo-3-quinolinecarboxylic acid hydrochloride] | 0.05 | 0.05 | 0.025 | 0.025 | 0.025 | 0.05 | 0.39 | 0.025 | 0.05 | 0.025 | 0.05 | 0.05 | 0.05 | 0.39 | 0.05 | 0.39 | 0.05 | 0.05 | 0.1 | 0.05 | MIC (E. coli ATCC 10536): 0.0125 µg/mL; MIC (E. coli ML 4707): 0.0125 µg/mL; MIC ([6]; Bacillus subtilis): 0.0125 µg/mL; MIC (S. epidermidis IID 866; IID866): 0.0125 µg/mL; MIC [8]: 0.05 µg/mL; MIC (S. pneumoniae IID 552): 0.025 µg/mL; MIC (S. pneumoniae 3227): 0.05 µg/mL; MIC (S. aureus Smith): 0.0125 µg/mL; MIC ([9]; Staphylococcus aureus, 209P): 0.0125 µg/mL; MIC (S. pyogenes 4372): 0.05 µg/mL; MIC [10]: 0.05 µg/mL
